Source: patent publication US20260062422A1 (Halda Therapeutics OpCo, Inc., priority 2022, published 2026)

Tests used:
[1] = test system: T-Rex 293 cell line SC3 cells having increased expression of androgen receptor protein due to exposure to doxycycline; experiment: Cellular growth inhibition, T-Rex 293 SC3 cells with doxycycline (androgen receptor induced), CellTiter-Glo; assay type: cell-based; details: 72 h, T-Rex 293 SC3 cells with 10 ng/mL doxycycline (increased androgen receptor expression)
Summary of the method: (§1)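 GI50 came from a four-parameter fit of CellTiter-Glo 2.0 luminescence after 72 h compound exposure (0.5% DMSO, 37 °C), dosing 24 h post-seeding. SC3 clone cells (2500/well), transfected with wild-type androgen receptor, grew in charcoal-stripped serum medium lacking phenol red, induced with 10 ng/mL doxycycline or left uninduced.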

[2] = test system: T-Rex 293 cell line SC3 cells lacking increased expression of androgen receptor protein; experiment: Cellular growth inhibition, T-Rex 293 SC3 cells without doxycycline, CellTiter-Glo; assay type: cell-based; details: 72 h, T-Rex 293 SC3 cells not exposed to doxycycline, CellTiter-Glo 2.0
Summary of the method: as §1

[3] = test system: VCaP cells; experiment: Cellular growth inhibition assay for VCaP cells, CellTiter-Glo; assay type: cell-based, human; details: Homo sapiens, VCaP, 72 h, 72 hours treatment, CellTiter-Glo 2.0
Summary of the method: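 GI50 values come from four-parameter curve fits of luminescence data normalized to a zero baseline. Compound, in medium with 0.5% DMSO, was added one day after plating and left for 72 h before CellTiter-Glo 2.0 addition.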

[4] = test system: T47D cells; experiment: Cellular growth inhibition assay for T47D cells, CellTiter-Glo; assay type: cell-based, human; details: Homo sapiens, T47D, 72 h, 72 hours treatment, CellTiter-Glo 2.0 cell viability
Summary of the method: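 Growth inhibition as GI50, fitted with four parameters to CellTiter-Glo luminescence after 72 h of compound exposure (0.5% DMSO). Cells were T47D, grown in insulin-supplemented (0.2 units/mL) DMEM with 10% FBS and treated one day post-seeding.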

Row | GI50 [3] | GI50 [4] | SMILES | GI50 [1] | GI50 [2]
1 | < 500 nM | 500 to 1500 nM | Cc1sc2c(c1C)C(c1ccc(OCCOC3CCN(c4ncc(C(=O)N[C@H]5C(C)(C)[C@H](Oc6ccc(C#N)c(Cl)c6)C5(C)C)cn4)CC3)cc1)=N[C@@H](CC(=O)NC1CC1)c1nnc(C)n1-2 [Compound I-67] | < 500 nM | < 500 nM
2 | < 500 nM | 500 to 1500 nM | CCNC(=O)C[C@@H]1N=C(c2ccc(OCCC3CCN(c4ncc(C(=O)N[C@H]5C(C)(C)[C@H](Oc6ccc(C#N)c(Cl)c6)C5(C)C)cn4)CC3)cc2)c2c(sc(C)c2C)-n2c(C)nnc21 [Compound I-69] | < 500 nM | < 500 nM
3 | < 500 nM | 500 to 1500 nM | CCNC(=O)C[C@@H]1N=C(c2ccc(OCCN3CCN(c4ncc(C(=O)N[C@H]5C(C)(C)[C@H](Oc6ccc(C#N)c(Cl)c6)C5(C)C)cn4)CC3)cc2)c2c(sc(C)c2C)-n2c(C)nnc21 [Compound I-70] | < 500 nM | 500 to 1500 nM
4 | < 500 nM | < 500 nM | CCNC(=O)C[C@@H]1N=C(c2ccc(OC3CC(OC4CCN(c5ncc(C(=O)N[C@H]6C(C)(C)[C@H](Oc7ccc(C#N)c(Cl)c7)C6(C)C)cn5)CC4)C3)cc2)c2c(sc(C)c2C)-n2c(C)nnc21 (stereo partly drawn) [Compound I-72] | < 500 nM | 500 to 1500 nM
5 | < 500 nM | < 500 nM | CCNC(=O)C[C@@H]1N=C(c2ccc(OC3CN(CC4CCN(c5ncc(C(=O)N[C@H]6C(C)(C)[C@H](Oc7ccc(C#N)c(Cl)c7)C6(C)C)cn5)CC4)C3)cc2)c2c(sc(C)c2C)-n2c(C)nnc21 [Compound I-79] | < 500 nM | 500 to 1500 nM
6 | < 500 nM | 500 to 1500 nM | CCNC(=O)C[C@@H]1N=C(c2ccc(OCCN(C)c3ncc(C(=O)N[C@H]4C(C)(C)[C@H](Oc5ccc(C#N)c(Cl)c5)C4(C)C)cn3)cc2)c2c(sc(C)c2C)-n2c(C)nnc21 [Compound I-80] | < 500 nM | 500 to 1500 nM
7 | 500 to 1500 nM | < 500 nM | CCNC(=O)C[C@@H]1N=C(c2ccc(OC3CC(N(C)C4CCN(c5ncc(C(=O)N[C@H]6C(C)(C)[C@H](Oc7ccc(C#N)c(Cl)c7)C6(C)C)cn5)CC4)C3)cc2)c2c(sc(C)c2C)-n2c(C)nnc21 (stereo partly drawn) [Compound I-82] | < 500 nM | 500 to 1500 nM
8 | < 500 nM | < 500 nM | CCNC(=O)C[C@@H]1N=C(c2ccc(CCCOC3CCN(c4ncc(C(=O)N[C@H]5C(C)(C)[C@H](Oc6ccc(C#N)c(Cl)c6)C5(C)C)cn4)CC3)cc2)c2c(sc(C)c2C)-n2c(C)nnc21 [Compound I-87, N-[3-(3-chloro-4-cyano-phenoxy)-2,2,4,4-tetramethyl-cyclobutyl]-2-[4-[3-[4-[(9S)-9-[2-(ethylamino)-2-oxo-ethyl]-4,5,13-trimethyl-3-thia-1,8,11,12-tetrazatricyclo[8.3.0.02,6]trideca-2(6),4,7,10,12-pentaen-7-yl]phenyl]propoxy]-1-piperidyl]pyrimidine-5-carboxamide] | < 500 nM | < 500 nM
9 | < 500 nM | 500 to 1500 nM | CCNC(=O)C[C@@H]1N=C(c2ccc(CCC3CN(c4ncc(C(=O)N[C@H]5C(C)(C)[C@H](Oc6ccc(C#N)c(Cl)c6)C5(C)C)cn4)C3)cc2)c2c(sc(C)c2C)-n2c(C)nnc21 [Compound I-93] | < 500 nM | 500 to 1500 nM
10 | < 500 nM | 500 to 1500 nM | CCNC(=O)C[C@@H]1N=C(c2ccc(CN3CC4CN(c5ncc(C(=O)N[C@H]6C(C)(C)[C@H](Cc7ccc(C#N)c(Cl)c7)C6(C)C)cn5)CC4C3)cc2)c2c(sc(C)c2C)-n2c(C)nnc21 (stereo partly drawn) [Compound I-94] | < 500 nM | 500 to 1500 nM
11 | 500 to 1500 nM | < 500 nM | CCNC(=O)C[C@@H]1N=C(c2ccc(CCCN3CCN(c4ncc(C(=O)N[C@H]5C(C)(C)[C@H](Oc6ccc(C#N)c(Cl)c6)C5(C)C)cn4)CC3)cc2)c2c(sc(C)c2C)-n2c(C)nnc21 [Compound I-99] | < 500 nM | 500 to 1500 nM
12 | 500 to 1500 nM | 500 to 1500 nM | CCNC(=O)C[C@@H]1N=C(c2ccc(CCN(C)c3ncc(C(=O)N[C@H]4C(C)(C)[C@H](Oc5ccc(C#N)c(Cl)c5)C4(C)C)cn3)cc2)c2c(sc(C)c2C)-n2c(C)nnc21 [Compound I-103] | < 500 nM | 500 to 1500 nM
13 | < 500 nM | < 500 nM | CCNC(=O)C[C@@H]1N=C(c2ccc(N3CCC(CN4CCN(c5ncc(C(=O)N[C@H]6C(C)(C)[C@H](Oc7ccc(C#N)c(Cl)c7)C6(C)C)cn5)CC4)CC3)cc2)c2c(sc(C)c2C)-n2c(C)nnc21 [Compound I-109] | < 500 nM | 500 to 1500 nM
14 | < 500 nM | < 500 nM | CCNC(=O)C[C@@H]1N=C(c2ccc(N(C)CCC3CCN(c4ncc(C(=O)N[C@H]5C(C)(C)[C@H](Oc6ccc(C#N)c(Cl)c6)C5(C)C)cn4)CC3)cc2)c2c(sc(C)c2C)-n2c(C)nnc21 [Compound I-110] | < 500 nM | < 500 nM
15 | < 500 nM | < 500 nM | CCNC(=O)C[C@@H]1N=C(c2ccc(N3CC(OC4CCN(c5ncc(C(=O)N[C@H]6C(C)(C)[C@H](Oc7ccc(C#N)c(Cl)c7)C6(C)C)cn5)CC4)C3)cc2)c2c(sc(C)c2C)-n2c(C)nnc21 [Compound I-117] | < 500 nM | 500 to 1500 nM
16 | < 500 nM | < 500 nM | CCNC(=O)C[C@@H]1N=C(c2ccc(N3CCC(OC4CN(c5ncc(C(=O)N[C@H]6C(C)(C)[C@H](Oc7ccc(C#N)c(Cl)c7)C6(C)C)cn5)C4)CC3)cc2)c2c(sc(C)c2C)-n2c(C)nnc21 [Compound I-118] | < 500 nM | 500 to 1500 nM
17 | < 500 nM | < 500 nM | CCNC(=O)C[C@@H]1N=C(c2ccc(N3CC(N(C)C4CCN(c5ncc(C(=O)N[C@H]6C(C)(C)[C@H](Oc7ccc(C#N)c(Cl)c7)C6(C)C)cn5)CC4)C3)cc2)c2c(sc(C)c2C)-n2c(C)nnc21 [Compound I-122] | < 500 nM | 500 to 1500 nM
18 | < 500 nM | 500 to 1500 nM | CCNC(=O)C[C@@H]1N=C(c2ccc(N3CC(N(C(C)C)C4CN(c5ncc(C(=O)N[C@H]6C(C)(C)[C@H](Oc7ccc(C#N)c(Cl)c7)C6(C)C)cn5)C4)C3)cc2)c2c(sc(C)c2C)-n2c(C)nnc21 [Compound I-125] | < 500 nM | 500 to 1500 nM
19 | 500 to 1500 nM | < 500 nM | CCNC(=O)C[C@@H]1N=C(c2ccc(N3CCC(OC4CCN(c5ncc(C(=O)N[C@H]6C(C)(C)[C@H](Oc7ccc(C#N)c(Cl)c7)C6(C)C)cn5)CC4)C3)cc2)c2c(sc(C)c2C)-n2c(C)nnc21 (stereo partly drawn) [Compound I-126] | < 500 nM | 500 to 1500 nM
20 | < 500 nM | < 500 nM | CCNC(=O)C[C@@H]1N=C(c2ccc(N3CC(CC4CN(c5ncc(C(=O)N[C@H]6C(C)(C)[C@H](Oc7ccc(C#N)c(Cl)c7)C6(C)C)cn5)C4)C3)cc2)c2c(sc(C)c2C)-n2c(C)nnc21 [Compound I-127] | < 500 nM | 500 to 1500 nM
21 | 1500 to 3000 nM | 1500 to 3000 nM | CCNC(=O)C[C@@H]1N=C(c2ccc(N3CCC(CN4CC(N(C)c5ncc(C(=O)N[C@H]6C(C)(C)[C@H](Oc7ccc(C#N)c(Cl)c7)C6(C)C)cn5)C4)CC3)cc2)c2c(sc(C)c2C)-n2c(C)nnc21 [Compound I-128] | > 3000 nM | > 3000 nM
22 | < 500 nM | < 500 nM | Cc1sc2c(c1C)C(c1ccc(CCC3CCN(c4ncc(C(=O)N[C@H]5C(C)(C)[C@H](Oc6ccc(C#N)c(Cl)c6)C5(C)C)cn4)CC3)cc1)=N[C@@H](Cc1ncco1)c1nnc(C)n1-2 [Compound I-132] | < 500 nM | > 3000 nM
23 | < 500 nM | < 500 nM | Cc1sc2c(c1C)C(c1ccc(CCCC3CCN(c4ncc(C(=O)N[C@H]5C(C)(C)[C@H](Oc6ccc(C#N)c(Cl)c6)C5(C)C)cn4)CC3)cc1)=NC(Cc1ncco1)c1nnc(C)n1-2 (stereo partly drawn) [Compound I-133] | < 500 nM | 500 to 1500 nM
24 | < 500 nM | < 500 nM | Cc1sc2c(c1C)C(c1ccc(CCCCC3CCN(c4ncc(C(=O)N[C@H]5C(C)(C)[C@H](Oc6ccc(C#N)c(Cl)c6)C5(C)C)cn4)CC3)cc1)=NC(Cc1ncco1)c1nnc(C)n1-2 (stereo partly drawn) [Compound I-135] | < 500 nM | > 3000 nM
25 | < 500 nM | < 500 nM | Cc1sc2c(c1C)C(c1ccc(CN3CCC4(CCCN(c5ncc(C(=O)N[C@H]6C(C)(C)[C@H](Oc7ccc(C#N)c(Cl)c7)C6(C)C)cn5)C4)C3)cc1)=NC(Cc1ncco1)c1nnc(C)n1-2 (stereo partly drawn) [Compound I-137] | < 500 nM | 500 to 1500 nM
26 | < 500 nM | 500 to 1500 nM | Cc1sc2c(c1C)C(c1ccc(CN3CC4(CCCN(c5ncc(C(=O)N[C@H]6C(C)(C)[C@H](Oc7ccc(C#N)c(Cl)c7)C6(C)C)cn5)C4)C3)cc1)=NC(Cc1ncco1)c1nnc(C)n1-2 (stereo partly drawn) [Compound I-138] | < 500 nM | 1500 to 3000 nM
27 | < 500 nM | < 500 nM | Cc1sc2c(c1C)C(c1ccc(CN3CC4(C3)CN(c3ncc(C(=O)N[C@H]5C(C)(C)[C@H](Oc6ccc(C#N)c(Cl)c6)C5(C)C)cn3)CCO4)cc1)=NC(Cc1ncco1)c1nnc(C)n1-2 (stereo partly drawn) [Compound I-139] | < 500 nM | < 500 nM
